Earlier results, collected in US20100280255A1, “PROCESS FOR MAKING SUBSTITUTED 2-AMINO-THIAZOLONES” (AMGEN INC., priority 2007, published 2010).

Legend:
normal subjects = conditions: ingestion
healthy human volunteers = healthy human volunteers treated

CC1(C)[C@@H](OC(=O)CCC(=O)O)CC[C@]2(C)[C@H]3C(=O)C=C4[C@@H]5C[C@@](C)(C(=O)O)CC[C@]5(C)CC[C@@]4(C)[C@]3(C)CC[C@@H]12 [carbenoxolone]
reduction of the intraocular pressure (normal subjects): 20% | hepatic insulin sensitivity (healthy human volunteers): improved | negative effect (of glucocorticoids) on bone nodule formation (bone nodule formation): blocked
